Laboratory results as given in patent publication US9487510B2, “Substituted heterocyclic acetamides as kappa opioid receptor (KOR) agonists” (Dr. Reddy's Laboratories Ltd., priority 2012, dated 2016).

Target: human KOR receptor (Homo sapiens, UniProt P41145)
Experiment: IP-One HTRF assay, potency of KOR agonists, dose-response in transiently transfected COS-7 cells
Format: cell-based

Sequence of human KOR receptor (P41145 whole entry): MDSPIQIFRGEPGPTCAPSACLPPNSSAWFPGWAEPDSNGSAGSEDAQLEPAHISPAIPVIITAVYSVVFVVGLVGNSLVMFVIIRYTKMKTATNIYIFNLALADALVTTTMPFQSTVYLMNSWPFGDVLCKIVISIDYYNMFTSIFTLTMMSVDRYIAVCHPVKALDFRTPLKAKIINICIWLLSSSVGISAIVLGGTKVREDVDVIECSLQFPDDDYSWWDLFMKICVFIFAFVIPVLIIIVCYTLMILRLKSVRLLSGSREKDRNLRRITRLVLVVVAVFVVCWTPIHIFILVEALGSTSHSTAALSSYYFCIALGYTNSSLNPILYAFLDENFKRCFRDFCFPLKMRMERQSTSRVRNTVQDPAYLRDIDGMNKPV

| Compound | EC50 |
| --- | --- |
| CN(C(=O)Cc1ccc2c(c1)NS(=O)(=O)C2)[C@H](CN1CC[C@H](O)C1)c1cccc(-c2ncc[nH]2)c1 [Example 202, N-((S)-1-(3-(1H-imidazol-2-yl)phenyl)-2-((S)-3-hydroxypyrrolidin-1-yl)ethyl)-2-(2,2-dioxido-1,3-dihydrobenzo[c]isothiazol-6-yl)-N-methylacetamide] | 51 to 100 nM |
| CN(C(=O)Cc1ccc2c(c1)CC(=O)N2)[C@H](CN1CC[C@H](O)C1)c1cccc(OCC(=O)O)c1 [Example 169, 2-(3-((S)-2-((S)-3-hydroxypyrrolidin-1-yl)-1-(N-methyl-2-(2-oxoindolin-5-yl)acetamido)ethyl)phenoxy)acetic acid] | ≤ 50 nM |
| O=C1COc2ccc(CC(=O)N[C@H](CN3CC[C@H](O)C3)c3ccccc3)cc2N1 [Example 2, N-[(1S)-2-[(3S)-3-hydroxypyrrolidin-1-yl]-1-phenylethyl]-2-(3-oxo-3,4-dihydro-2H-1,4-benzoxazin-6-yl)acetamide] | ≤ 50 nM |
| CN(C(=O)Cc1ccc2c(c1)NC(=O)CS2(=O)=O)C(CN1CC[C@H](O)C1)c1ccc(OC(F)(F)F)cc1 (stereo in doubt) [Example 142, 2-(1,1-dioxido-3-oxo-3,4-dihydro-2H-benzo[b][1,4]thiazin-6-yl)-N-((S)-2-((S)-3-hydroxypyrrolidin-1-yl)-1-(4-(trifluoromethoxy)phenyl)ethyl)-N-methylacetamide] | ≤ 50 nM |
| C#Cc1cccc([C@@H](CN2CC[C@H](O)C2)N(C)C(=O)Cc2ccc3c(c2)NC(=O)C3)c1 [Example 180, N-((S)-1-(3-ethynylphenyl)-2-((S)-3-hydroxypyrrolidin-1-yl)ethyl)-N-methyl-2-(2-oxoindolin-6-yl)acetamide] | ≤ 50 nM |
| CN(C(=O)Cc1ccc2c(c1)NC(=O)C2)[C@H](CN1CC[C@H](F)C1)c1cccc(OCC(=O)O)c1 [Example 29, 2-(3-((S)-2-((S)-3-fluoropyrrolidin-1-yl)-1-(N-methyl-2-(2-oxoindolin-6-yl)acetamido)ethyl)phenoxy)acetic acid] | ≤ 50 nM |
| CN(C(=O)Cc1ccc2oc(=O)n(Cc3ccc(C#N)cc3)c2c1)[C@H](CN1CC[C@H](O)C1)c1ccccc1 [Example 75, 2-(3-(4-cyanobenzyl)-2-oxo-2,3-dihydrobenzo[d]oxazol-5-yl)-N-((S)-2-((S)-3-hydroxypyrrolidin-1-yl)-1-phenylethyl)-N-methylacetamide] | ≤ 50 nM |
| CN(C(=O)Cc1ccc2oc(=O)[nH]c2c1)C(CN1CC[C@H](O)C1)c1cccc(OCC(=O)O)c1 (stereo partly drawn) [Example 94, (S)-2-(3-(2-(3-hydroxypyrrolidin-1-yl)-1-(N-methyl-2-(2-oxo-2,3-dihydrobenzo[d]oxazol-5-yl)acetamido)ethyl)phenoxy)acetic acid triflouro acetate] | ≤ 50 nM |
| CN(C(=O)Cc1ccc2sc(=O)[nH]c2c1)[C@H](CN1CC[C@H](O)C1)c1cccc(C(=O)NCC(F)(F)F)c1 [Example 228, 3-((S)-2-((S)-3-hydroxypyrrolidin-1-yl)-1-(N-methyl-2-(2-oxo-2,3-dihydrobenzo[d]thiazol-5-yl)acetamido)ethyl)-N-(2,2,2-trifluoroethyl)benzamide] | ≤ 50 nM |
| Cc1nc(-c2cccc([C@@H](CN3CC[C@H](O)C3)N(C)C(=O)Cc3ccc4ncc(=O)[nH]c4c3)c2)no1 [Example 194, N-((S)-2-((S)-3-hydroxypyrrolidin-1-yl)-1-(3-(5-methyl-1,2,4-oxadiazol-3-yl)phenyl)ethyl)-N-methyl-2-(3-oxo-3,4-dihydroquinoxalin-6-yl)acetamide] | ≤ 50 nM |
| CN(C(=O)Cc1ccc2c(c1)NC(=O)CS2)[C@H](CN1CC[C@H](O)C1)c1cccc(C(F)(F)F)c1 [Example 132, N-((S)-2-((S)-3-hydroxypyrrolidin-1-yl)-1-(3-(trifluoromethyl)phenyl)ethyl)-N-methyl-2-(3-oxo-3,4-dihydro-2H-benzo[b][1,4]thiazin-6-yl)acetamide] | ≤ 50 nM |
| CN(C(=O)Cc1ccc2c(c1)NC(=O)CS2(=O)=O)C(CN1CCC(O)C1)c1cccc(C2CC2)c1 (stereo in doubt) [Example 150, N-((S)-1-(3-cyclopropylphenyl)-2-((S)-3-hydroxypyrrolidin-1-yl)ethyl)-2-(1,1-dioxido-3-oxo-3,4-dihydro-2H-benzo[b][1,4]thiazin-6-yl)-N-methylacetamide] | ≤ 50 nM |
| CN(C(=O)Cc1ccc2c(c1)NC(=O)CS2(=O)=O)[C@H](CN1CC[C@H](O)C1)c1cccc(C(F)(F)F)c1 [Example 123, 2-(1,1-dioxido-3-oxo-3,4-dihydro-2H-benzo[b][1,4]thiazin-6-yl)-N-((S)-2-((S)-3-hydroxypyrrolidin-1-yl)-1-(3-(trifluoromethyl)phenyl)ethyl)-N-methylacetamide] | ≤ 50 nM |
| CN(C(=O)Cc1ccc2c(c1)NC(=O)CS2(=O)=O)[C@H](CN1CC[C@H](O)C1)c1cccc(OCC(F)(F)F)c1 [Example 144, 2-(1,1-dioxido-3-oxo-3,4-dihydro-2H-benzo [b][1,4]thiazin-6-yl)-N-((S)-2-((S)-3-hydroxypyrrolidin-1-yl)-1-(3-(2,2,2-trifluoroethoxy)phenyl)ethyl)-N-methylacetamide] | ≤ 50 nM |
| CN(C)C(=O)c1cccc([C@@H](CN2CC[C@H](O)C2)N(C)C(=O)Cc2ccc3c(c2)NS(=O)(=O)C3)c1 [Example 210, 3-((S)-1-(2-(2,2-dioxido-1,3-dihydrobenzo[c]isothiazol-6-yl)-N-methylacetamido)-2-((S)-3-hydroxypyrrolidin-1-yl)ethyl)-N,N-dimethylbenzamide] | ≤ 50 nM |
| CN(C(=O)Cc1ccc2c(c1)NC(=O)CS2(=O)=O)[C@H](CN1CC[C@H](O)C1)c1cccc(F)c1 [Example 124, 2-(1,1-dioxido-3-oxo-3,4-dihydro-2H-benzo[b][1,4]thiazin-6-yl)-N-((S)-1-(3-fluorophenyl)-2-((S)-3-hydroxypyrrolidin-1-yl)ethyl)-N-methylacetamide] | ≤ 50 nM |
| CN(C(=O)Cc1ccc2c(c1)NS(=O)(=O)C2)[C@H](CN1CC[C@H](O)C1)c1cccc(C(=O)NCC(F)(F)F)c1 [Example 195, 3-((S)-1-(2-(2,2-dioxido-1,3-dihydrobenzo[c]isothiazol-6-yl)-N-methylacetamido)-2-((S)-3-hydroxypyrrolidin-1-yl)ethyl)-N-(2,2,2-trifluoroethyl)benzamide] | ≤ 50 nM |
| CN(C(=O)Cc1ccc2c(c1)NC(=O)CS2)[C@H](CN1CC[C@H](O)C1)c1cccc(OC(F)(F)F)c1 [Example 134, N-((S)-2-((S)-3-hydroxypyrrolidin-1-yl)-1-(3-(trifluoromethoxy)phenyl)ethyl)-N-methyl-2-(3-oxo-3,4-dihydro-2H-benzo[b][1,4]thiazin-6-yl)acetamide] | ≤ 50 nM |
| CN(C(=O)Cc1ccc2c(c1)NC(=O)CS2(=O)=O)[C@H](CN1CC[C@H](O)C1)c1ccc(F)c(OC(F)(F)F)c1 [Example 146, 2-(1,1-dioxido-3-oxo-3,4-dihydro-2H-benzo[b][1,4]thiazin-6-yl)-N-((S)-1-(4-fluoro-3-(trifluoromethoxy)phenyl)-2-((S)-3-hydroxypyrrolidin-1-yl)ethyl)-N-methylacetamide] | ≤ 50 nM |
| O=C1CS(=O)(=O)c2ccc(CC(=O)N(CC3CC3)[C@H](CN3CCC(O)C3)c3cccc(OC(F)(F)F)c3)cc2N1 (stereo in doubt) [Example 141, N-(cyclopropylmethyl)-2-(1,1-dioxido-3-oxo-3,4-dihydro-2H-benzo[b][1,4]thiazin-6-yl)-N-((S)-2-((S)-3-hydroxypyrrolidin-1-yl)-1-(3-(trifluoromethoxy)phenyl)ethyl)acetamide] | ≤ 50 nM |
| CN(C(=O)Cc1ccc2c(c1)NC(=O)CS2(=O)=O)[C@H](CN1CC[C@H](O)C1)C1CCCCC1 [Example 125, N-((S)-1-cyclohexyl-2-((S)-3-hydroxypyrrolidin-1-yl)ethyl)-2-(1,1-dioxido-3-oxo-3,4-dihydro-2H-benzo [b][1,4]thiazin-6-yl)-N-methylacetamide] | ≤ 50 nM |
| O=C1CS(=O)(=O)c2ccc(CC(=O)N[C@H](CN3CC[C@H](O)C3)c3ccccc3)cc2N1 [Example 122, 2-(1,1-dioxido-3-oxo-3,4-dihydro-2H-benzo[b][1,4]thiazin-6-yl)-N-((S)-2-((S)-3-hydroxypyrrolidin-1-yl)-1-phenylethyl)acetamide] | ≤ 50 nM |
| CN(C(=O)Cc1ccc2c(c1)NC(=O)C2)[C@H](CN1CC[C@H](O)C1)c1cccc(-c2nnn(C)n2)c1 [Example 44, N-((S)-2-((S)-3-hydroxypyrrolidin-1-yl)-1-(3-(2-methyl-2H-tetrazol-5-yl)phenyl)ethyl)-N-methyl-2-(2-oxoindolin-6-yl)acetamide] | 51 to 100 nM |
| CN(C(=O)Cc1ccc2c(c1)NC(=O)C(C)(C)S2(=O)=O)[C@H](CN1CC[C@H](O)C1)c1cccc(OC(F)(F)F)c1 [Example 148, 2-(2,2-dimethyl-1,1-dioxido-3-oxo-3,4-dihydro-2H-benzo[b][1,4]thiazin-6-yl)-N-((S)-2-((S)-3-hydroxypyrrolidin-1-yl)-1-(3-(trifluoromethoxy)phenyl)ethyl)-N-methylacetamide] | ≤ 50 nM |
| CN(C(=O)Cc1ccc2c(c1)NC(=O)C2)[C@H](CN1CC[C@H](O)C1)c1cccc(-c2ncc[nH]2)c1 [Example 198, N-((S)-1-(3-(1H-imidazol-2-yl)phenyl)-2-((S)-3-hydroxypyrrolidin-1-yl)ethyl)-N-methyl-2-(2-oxoindolin-6-yl)acetamide 2,2,2-trifluoroacetate] | ≤ 50 nM |
| CN(C(=O)Cc1ccc2c(c1)CS(=O)(=O)N2)[C@H](CN1CC[C@H](O)C1)c1ccccc1 [Example 10, 5-(2-(((S)-2-((S)-3-hydroxypyrrolidin-1-yl)-1-phenylethyl)(methyl)amino)-2-oxoethyl)-1,3-dihydrobenzo[c]isothiazol-1-ium 2,2-dioxide 2,2,2-trifluoroacetate] | 101 to 1000 nM |
| COC(=O)c1ccc(Cn2c(=O)oc3ccc(CC(=O)N(C)[C@H](CN4CC[C@H](O)C4)c4ccccc4)cc32)cc1 [Example 98, Methyl 4-((5-(2-(((S)-2-((S)-3-hydroxypyrrolidin-1-yl)-1-phenylethyl)(methyl)amino)-2-oxoethyl)-2-oxobenzo[d]oxazol-3(2H)-yl)methyl)benzoate] | ≤ 50 nM |
